Experimental data published in ChEMBL document CHEMBL5104211, “Design and synthesis of bile acid derivatives and their activity against colon cancer” (RSC Med Chem, 2022).
pIC50: −log10 of the molar value. One block for each molecule: values may come before it. Calls of active or inactive are those of the source. The calls are words filed in the database; no cut-off is given here.

Assays:
HCT-116 [1] = assay: Anticancer activity against human HCT-116 cells assessed as inhibition of cell proliferation at 30 micromol/L incubated for 24 hrs by MTT assay; assay type: functional; details: HCT-116, 24 h, dose 30 µmol/L
[2] = Cytotoxicity against human WI-38 cells assessed as inhibition of cell proliferation by MTT assay; assay type: toxicity, cell-based
HCT-116 [3] = assay: Induction of mitochondrial membrane potential loss in human HCT-116 cells and measured after 48 hrs by TRME staining based flow cytometric analysis (reference value: 97.52%); assay type: functional
LoVo = assay: Anticancer activity against human LoVo cells assessed as inhibition of cell proliferation by MTT assay; assay type: functional, cell-based
SK-HEP1 = assay: Anticancer activity against human SK-HEP1 cells assessed as inhibition of cell proliferation by MTT assay; assay type: functional, cell-based
HCT-116 [4] = assay: Inhibition of cell migration in human HCT-116 cells at 20 micromol/L and measured after 24 hrs by crystal violet staining based transwell assay; assay type: functional; details: dose 20.0 µmol/L
HCT-116 [5] = assay: Induction of apoptosis in human HCT-116 cells assessed as viable cells at 30 micromol/L incubated for 48 hrs by annexin V-FITC and propidium iodide staining based flow cytometry analysis (reference value: 89.29%); assay type: functional; details: HCT-116, 48 h, dose 30 µmol/L, read-out: Activity
HCT-116 [6] = assay: Induction of apoptosis in human HCT-116 cells assessed as necrotic cells at 30 micromol/L incubated for 48 hrs by annexin V-FITC and propidium iodide staining based flow cytometry analysis (reference value: 0.88%); assay type: functional; details: dose 30 µmol/L, at 30 µM
HCT-116 [7] = assay: Induction of apoptosis in human HCT-116 cells assessed as contraction of cell volume at 30 micromol/L incubated for 48 hrs by Giemsa staining based fluorescence microscopy; assay type: functional; details: dose 30.0 µmol/L
HCT-116 [8] = assay: Induction of apoptosis in human HCT-116 cells assessed as apoptotic body formation at 30 micromol/L incubated for 48 hrs by Giemsa staining based fluorescence microscopy; assay type: functional, cell-based; details: dose 30.0 µmol/L
HCT-116 [9] = assay: Induction of ROS generation in human HCT-116 cells assessed as increase in intracellular ROS level incubated for 48 hrs by DCFH-DA staining based flow cytometric analysis (Rvb=73.65%); assay type: functional
HCT-116 [10] = assay: Anticancer activity in human HCT-116 cells assessed as downregulation of phosphorylated STAT3 level at 30 micromol/L incubated for 48 hrs by Western blot analysis; assay type: functional, cell-based; details: dose 30.0 µmol/L
HCT-116 [11] = assay: Anticancer activity against human HCT-116 cells assessed as decrease in number of colonies at 25 micromol/L and measured after 48 hrs by crystal violet dye based colony formation assay; assay type: functional, cell-based; details: dose 25.0 µmol/L
HCT-116 [12] = assay: Inhibition of cell invasion in human HCT-116 cells at 20 micromol/L and measured after 24 hrs by crystal violet staining based transwell assay; assay type: functional; details: HCT-116, 24 h, dose 20 µmol/L
HCT-116 [13] = assay: Anticancer activity against human HCT-116 cells assessed as inhibition of cell proliferation by MTT assay; assay type: functional, cell-based
HCT-116 [14] = assay: Induction of apoptosis in human HCT-116 cells assessed as retraction of the nucleus at 30 micromol/L incubated for 48 hrs by Giemsa staining based fluorescence microscopy; assay type: functional, cell-based; details: dose 30.0 µmol/L
HCT-116 [15] = assay: Anticancer activity against human HCT-116 cells assessed as inhibition of cell proliferation at 5 to 50 micromol/L incubated for 24 hrs by MTT assay; assay type: functional, cell-based; details: dose 5-50 µmol/L, DDE = dose-dependent effect
HCT-116 [16] = assay: Anticancer activity against human HCT-116 cells assessed as inhibition of cell proliferation at 25 micromol/L incubated for 24 hrs by MTT assay; assay type: functional; details: HCT-116, 24 h, dose 25 µmol/L
Huh-7 = assay: Anticancer activity against human Huh-7 cells assessed as inhibition of cell proliferation by MTT assay; assay type: functional, cell-based
HCT-116 [17] = assay: Induction of apoptosis in human HCT-116 cells assessed as unclear cell rupture edges at 30 micromol/L incubated for 48 hrs by Giemsa staining based fluorescence microscopy; assay type: functional; details: dose 30.0 µmol/L
MGC-803 = assay: Anticancer activity against human MGC-803 cells assessed as inhibition of cell proliferation by MTT assay; assay type: functional, cell-based
HCT-116 [18] = assay: […] activity in human HCT-116 cells assessed as upregulation of cleaved caspase-3 level at 30 micromol/L incubated for 48 hrs by Western blot analysis; assay type: functional, cell-based; details: dose 30.0 µmol/L
HT-29 = assay: Anticancer activity against human HT-29 cells assessed as inhibition of cell proliferation by MTT assay; assay type: functional, cell-based
HCT-116 [19] = assay: […] activity in human HCT-116 cells assessed as downregulation of Bcl-2 level at 30 micromol/L incubated for 48 hrs by Western blot analysis; assay type: functional, cell-based; details: dose 30.0 µmol/L
HCT-116 [20] = assay: Induction of apoptosis in human HCT-116 cells assessed as early apoptotic cells at 30 micromol/L incubated for 48 hrs by annexin V-FITC and propidium iodide staining based flow cytometry analysis (reference value: 2.69%); assay type: functional; details: dose 30 µmol/L, at 30 µM
HCT-116 [21] = assay: Anticancer activity against human HCT-116 cells assessed as inhibition of cell proliferation at 20 to 40 micromol/L incubated for 24 to 72 hrs by MTT assay; assay type: functional, cell-based; details: dose 20-40 µmol/L, time 24-72 hrs, TDE = time-dependent effect
HCT-116 [22] = assay: Induction of apoptosis in human HCT-116 cells assessed as late apoptotic cells at 30 micromol/L incubated for 48 hrs by annexin V-FITC and propidium iodide staining based flow cytometry analysis (reference value: 7.13%); assay type: functional; details: dose 30 µmol/L, at 30 µM
HCT-116 [23] = assay: Anticancer activity against human HCT-116 cells assessed as decrease in size of colonies at 25 micromol/L and measured after 48 hrs by crystal violet dye based colony formation assay; assay type: functional, cell-based; details: dose 25.0 µmol/L
HCT-116 [24] = assay: Induction of apoptosis in human HCT-116 cells assessed as retraction of the cytoplasm at 30 micromol/L incubated for 48 hrs by Giemsa staining based fluorescence microscopy; assay type: functional, cell-based; details: dose 30.0 µmol/L
HCT-116 [25] = assay: Induction of cell cycle arrest in human HCT-116 cells assessed as accumulation G2/M phase at 25 micromol/L and measured after 48 hrs by propidium iodide staining based flow cytometry analysis (Rvb= 11%); assay type: functional; details: dose 25 µmol/L, at 25 µM
SW480 = assay: Anticancer activity against human SW480 cells assessed as inhibition of cell proliferation by MTT assay; assay type: functional, cell-based
A549 = assay: Anticancer activity against human A549 cells assessed as inhibition of cell proliferation by MTT assay; assay type: functional, cell-based
RKO = assay: Anticancer activity against human RKO cells assessed as inhibition of cell proliferation by MTT assay; assay type: functional, cell-based
RAW264.7 [26] = assay: Anti-inflammatory activity against mouse RAW264.7 cells assessed as inhibition of LPS-induced NO production at 25 micromol/L incubated for 24 hrs in presence of LPS by Griess reagent-based assay; assay type: functional; details: RAW264.7, 24 h, dose 25 µmol/L
RAW264.7 [27] = assay: Anti-inflammatory activity against mouse RAW264.7 cells assessed as inhibition of LPS-induced NO production incubated for 24 hrs in presence of LPS by Griess reagent-based assay; assay type: functional, cell-based; details: RAW264.7, 24 h
RAW264.7 [28] = assay: Anti-inflammatory activity against mouse RAW264.7 cells assessed as downregulation of LPS-induced TNF-alpha level at 10 to 25 micromol/L incubated for 24 hrs in presence of LPS by ELISA; assay type: functional, cell-based; details: dose 10-25 µmol/L, DDE = dose-dependent effect
RAW264.7 [29] = assay: Anti-inflammatory activity against mouse RAW264.7 cells assessed as inhibition of LPS-induced NO production at 10 micromol/L incubated for 24 hrs in presence of LPS by Griess reagent-based assay; assay type: functional; details: RAW264.7, 24 h, dose 10 µmol/L
RAW264.7 [30] = assay: Anti-inflammatory activity against mouse RAW264.7 cells assessed as downregulation of LPS-induced TNF-alpha level at 25 micromol/L incubated for 24 hrs in presence of LPS by ELISA; assay type: functional; details: dose 25 µmol/L, at 25 µM

- pIC50 (LoVo): 4.64
- pIC50 (SK-HEP1): 4.41
- pIC50 (HCT-116 [13]): 4.56
- pIC50 (Huh-7): 4.17
- pIC50 (MGC-803): 4.50
- pIC50 (HT-29): 4.56
- pIC50 (SW480): 4.63
- pIC50 (A549): 4.10
SMILES: COC(=O)[C@H](CCSC)NC(=O)CC[C@@H](C)[C@H]1CC[C@H]2[C@@H]3[C@H](O)C[C@@H]4C[C@H](O)CC[C@]4(C)[C@H]3CC[C@]12C
- inhibition at 30 µM (HCT-116 [1]): 70%
- pIC50 [2]: < 3.30
- Activity (HCT-116 [3]): 79.54%
- inhibition (HCT-116 [4]): Active
- viability at 30 µM (HCT-116 [5]): 43.1%
- Activity (HCT-116 [6]): 0.71%
- Activity (HCT-116 [7]): Active
- Activity (HCT-116 [8]): Active
- Activity (HCT-116 [9]): 86.51%
- Activity (HCT-116 [10]): Active
- Activity (HCT-116 [11]): Active
- inhibition at 20 µM (HCT-116 [12]): 50%
- Activity (HCT-116 [14]): Active
- inhibition (HCT-116 [15]): Dde
- inhibition at 25 µM (HCT-116 [16]): 30%
- Activity (HCT-116 [17]): Active
- Activity (HCT-116 [18]): Active
- Activity (HCT-116 [19]): Active
- Activity (HCT-116 [20]): 3.86%
- inhibition (HCT-116 [21]): Tde
- Activity (HCT-116 [22]): 52.35%
- Activity (HCT-116 [23]): Active
- Activity (HCT-116 [24]): Active
- Activity (HCT-116 [25]): 72.91%
- pIC50 (RKO): 4.56

- pIC50 (LoVo): 4.25
- pIC50 (SK-HEP1): 3.81
- pIC50 (HCT-116 [13]): 4.19
- pIC50 (Huh-7): 3.94
- pIC50 (RAW264.7 [27]): 4.79
- pIC50 (MGC-803): 4.09
- pIC50 (HT-29): 4.39
- pIC50 (SW480): 4.16
- pIC50 (A549): 3.90
SMILES: C[C@H](CCC(=O)OCc1cc(O)cc(O)c1)[C@H]1CC[C@H]2[C@@H]3[C@H](O)C[C@@H]4C[C@H](O)CC[C@]4(C)[C@H]3CC[C@]12C
- pIC50 [2]: < 3.70
- inhibition at 25 µM (RAW264.7 [26]): 73.2%
- Activity (RAW264.7 [28]): Dde
- inhibition at 10 µM (RAW264.7 [29]): 35.5%
- pIC50 (RKO): 4.11

- pIC50 (LoVo): 4.22
- pIC50 (SK-HEP1): < 3.70
- pIC50 (HCT-116 [13]): 4.30
- pIC50 (Huh-7): < 3.70
- pIC50 (RAW264.7 [27]): 4.92
- pIC50 (MGC-803): 4.08
- pIC50 (HT-29): 4.34
- pIC50 (SW480): 3.87
- pIC50 (A549): 3.91
SMILES: C[C@H](CCC(=O)OCc1cc(O)cc(O)c1)[C@H]1CC[C@H]2[C@@H]3CC[C@@H]4C[C@H](O)CC[C@]4(C)[C@H]3CC[C@]12C
- pIC50 [2]: < 3.70
- inhibition at 25 µM (RAW264.7 [26]): 82.1%
- Activity (RAW264.7 [30]): 50%
- inhibition at 10 µM (RAW264.7 [29]): 49%
- pIC50 (RKO): 4.37
